Earlier results in publication PMC8288134, “Synthesis, potential antitumor activity, cell cycle analysis, and multitarget mechanisms of novel hydrazones incorporating a 4-methylsulfonylbenzene scaffold: a molecular docking study” (Journal of Enzyme Inhibition and Medicinal Chemistry, 2021).

Key:
SR = test system: SR; parameters: method as in https://dtp.cancer.gov/dtpstandard/dwindex/index.jsp; settings: reference drugs, ref https://dtp.cancer.gov/dtpstandard/dwindex/index.jsp; cited from earlier work
EKVX = test system: EKVX; parameters: method as in https://dtp.cancer.gov/dtpstandard/dwindex/index.jsp; settings: reference drugs, ref https://dtp.cancer.gov/dtpstandard/dwindex/index.jsp; cited from earlier work
HOP-92 = test system: HOP-92; parameters: method as in https://dtp.cancer.gov/dtpstandard/dwindex/index.jsp; settings: reference drugs, ref https://dtp.cancer.gov/dtpstandard/dwindex/index.jsp; cited from earlier work
COLO 205 = test system: COLO 205; parameters: method as in https://dtp.cancer.gov/dtpstandard/dwindex/index.jsp; settings: reference drugs, ref https://dtp.cancer.gov/dtpstandard/dwindex/index.jsp; cited from earlier work
HCT-116 = test system: HCT-116; parameters: method as in https://dtp.cancer.gov/dtpstandard/dwindex/index.jsp; settings: reference drugs, ref https://dtp.cancer.gov/dtpstandard/dwindex/index.jsp; cited from earlier work
SW-620 = test system: SW-620; parameters: method as in https://dtp.cancer.gov/dtpstandard/dwindex/index.jsp; settings: reference drugs, ref https://dtp.cancer.gov/dtpstandard/dwindex/index.jsp; cited from earlier work
SF-268 = test system: SF-268; parameters: method as in https://dtp.cancer.gov/dtpstandard/dwindex/index.jsp; settings: reference drugs, ref https://dtp.cancer.gov/dtpstandard/dwindex/index.jsp; cited from earlier work
SK-MEL-2 = test system: SK-MEL-2; parameters: method as in https://dtp.cancer.gov/dtpstandard/dwindex/index.jsp; settings: reference drugs, ref https://dtp.cancer.gov/dtpstandard/dwindex/index.jsp; cited from earlier work
SK-MEL-5 = test system: SK-MEL-5; parameters: method as in https://dtp.cancer.gov/dtpstandard/dwindex/index.jsp; settings: reference drugs, ref https://dtp.cancer.gov/dtpstandard/dwindex/index.jsp; cited from earlier work
UO-31 = test system: UO-31; parameters: method as in https://dtp.cancer.gov/dtpstandard/dwindex/index.jsp; settings: reference drugs, ref https://dtp.cancer.gov/dtpstandard/dwindex/index.jsp; cited from earlier work
MCF7 = test system: MCF7; parameters: method as in https://dtp.cancer.gov/dtpstandard/dwindex/index.jsp; settings: reference drugs, ref https://dtp.cancer.gov/dtpstandard/dwindex/index.jsp; cited from earlier work
T-47D = test system: T-47D; parameters: method as in https://dtp.cancer.gov/dtpstandard/dwindex/index.jsp; settings: reference drugs, ref https://dtp.cancer.gov/dtpstandard/dwindex/index.jsp; cited from earlier work
MDA-MB-468 = test system: MDA-MB-468; parameters: method as in https://dtp.cancer.gov/dtpstandard/dwindex/index.jsp; settings: reference drugs, ref https://dtp.cancer.gov/dtpstandard/dwindex/index.jsp; cited from earlier work
SK-OV-3 = test system: SK-OV-3; parameters: method as in https://dtp.cancer.gov/dtpstandard/dwindex/index.jsp; settings: reference drugs, ref https://dtp.cancer.gov/dtpstandard/dwindex/index.jsp; cited from earlier work
786-0 = test system: 786-0; parameters: method as in https://dtp.cancer.gov/dtpstandard/dwindex/index.jsp; settings: reference drugs, ref https://dtp.cancer.gov/dtpstandard/dwindex/index.jsp; cited from earlier work
[1] = test system: CNS cancer tumour cell lines; settings: cited from earlier work; for GI50: read-out: GI50 (subpanel average), reference drugs, ref https://dtp.cancer.gov/dtpstandard/dwindex/index.jsp; for TGI (subpanel average): reference drugs, ref https://dtp.cancer.gov/dtpstandard/dwindex/index.jsp
[2] = test system: melanoma tumour cell lines; settings: cited from earlier work; for GI50: read-out: GI50 (subpanel average), reference drugs, ref https://dtp.cancer.gov/dtpstandard/dwindex/index.jsp; for TGI (subpanel average): reference drugs, ref https://dtp.cancer.gov/dtpstandard/dwindex/index.jsp
[3] = test system: ovarian cancer tumour cell lines; settings: cited from earlier work; for GI50: read-out: GI50 (subpanel average), reference drugs, ref https://dtp.cancer.gov/dtpstandard/dwindex/index.jsp; for TGI (subpanel average): reference drugs, ref https://dtp.cancer.gov/dtpstandard/dwindex/index.jsp
[4] = test system: renal cancer tumour cell lines; settings: cited from earlier work; for GI50: read-out: GI50 (subpanel average), reference drugs, ref https://dtp.cancer.gov/dtpstandard/dwindex/index.jsp; for TGI (subpanel average): reference drugs, ref https://dtp.cancer.gov/dtpstandard/dwindex/index.jsp
[5] = test system: breast cancer tumour cell lines; settings: cited from earlier work; for GI50: read-out: GI50 (subpanel average), reference drugs, ref https://dtp.cancer.gov/dtpstandard/dwindex/index.jsp; for TGI (subpanel average): reference drugs, ref https://dtp.cancer.gov/dtpstandard/dwindex/index.jsp
[6] = test system: full panel of 59 cancer cell lines; settings: cited from earlier work; for GI50: read-out: GI50 MG-MID (full panel mean-graph midpoint), reference drugs, ref https://dtp.cancer.gov/dtpstandard/dwindex/index.jsp; for TGI MG-MID (full panel mean-graph midpoint): reference drugs, ref https://dtp.cancer.gov/dtpstandard/dwindex/index.jsp
[7] = read-out: LC50 (subpanel average), reference drugs, ref https://dtp.cancer.gov/dtpstandard/dwindex/index.jsp

## CS(=O)(=O)c1ccc(C(=O)Nc2ccc(Cl)c(-c3ccccn3)c2)c(Cl)c1 [Vismodegib, vismodegib]
SR
  GI50: 39.8 µM
EKVX
  GI50: 39.8 µM
HOP-92
  GI50: 25.1 µM
COLO 205
  GI50: 39.8 µM
HCT-116
  GI50: 50.1 µM
SW-620
  GI50: 63.1 µM
SF-268
  GI50: 39.8 µM
SK-MEL-2
  GI50: 39.8 µM
SK-MEL-5
  GI50: 25.1 µM
UO-31
  GI50: 31.6 µM
MCF7
  GI50: 31.6 µM
T-47D
  GI50: 31.6 µM
MDA-MB-468
  GI50: 19.9 µM

## COc1cc2ncnc(Nc3ccc(F)c(Cl)c3)c2cc1OCCCN1CCOCC1 [Gefitinib, gefitinib]
SR
  GI50: 3.16 µM
HOP-92
  GI50: 0.316 µM
COLO 205
  GI50: 7.94 µM
HCT-116
  GI50: 3.16 µM
SF-268
  GI50: 2.51 µM
SK-MEL-2
  GI50: 10 µM
SK-MEL-5
  GI50: 3.16 µM
SK-OV-3
  GI50: 1 µM
786-0
  GI50: 3.16 µM
UO-31
  GI50: 1.58 µM
T-47D
  GI50: 7.94 µM
MDA-MB-468
  GI50: 0.0126 µM
[1]
  GI50: 5.64 µM
  TGI (subpanel average): 19.62 µM
[2]
  GI50: 3.68 µM
  TGI (subpanel average): 12.49 µM
[3]
  GI50: 3.05 µM
  TGI (subpanel average): 33.29 µM
[4]
  GI50: 1.41 µM
  TGI (subpanel average): 12.50 µM
[5]
  GI50: 4.67 µM
  TGI (subpanel average): 18.62 µM
[6]
  GI50: 2.1 µM
  TGI MG-MID (full panel mean-graph midpoint): 14.3 µM

## Cc1ccc(-c2cc(C(F)(F)F)nn2-c2ccc(S(N)(=O)=O)cc2)cc1 [Celecoxib, celecoxib]
SR
  GI50: 15.8 µM
EKVX
  GI50: 19.9 µM
COLO 205
  GI50: 15.8 µM
SW-620
  GI50: 15.8 µM
SF-268
  GI50: 15.8 µM
SK-MEL-2
  GI50: 15.8 µM
SK-MEL-5
  GI50: 15.8 µM
SK-OV-3
  GI50: 19.9 µM
786-0
  GI50: 39.8 µM
UO-31
  GI50: 15.8 µM
MCF7
  GI50: 15.8 µM
T-47D
  GI50: 15.8 µM
[1]
  GI50: 17.2 µM
  TGI (subpanel average): 31.62 µM
[1]; [7]
  CC50: 58.8 µM
[2]
  GI50: 22.5 µM
  TGI (subpanel average): 38.49 µM
[2]; [7]
  CC50: 64.3 µM
[3]
  GI50: 17.1 µM
  TGI (subpanel average): 34.20 µM
[3]; [7]
  CC50: 65.9 µM
[4]
  GI50: 19.9 µM
  TGI (subpanel average): 41.19 µM
[4]; [7]
  CC50: 61.2 µM
[5]
  GI50: 17.5 µM
  TGI (subpanel average): 34.89 µM
[6]
  GI50: 17.5 µM
  TGI MG-MID (full panel mean-graph midpoint): 34.0 µM
[6]; read-out: LC50 MG-MID (full panel mean-graph midpoint), reference drugs, ref https://dtp.cancer.gov/dtpstandard/dwindex/index.jsp
  CC50: 63.3 µM
